# Tests used:
# HCT-15 = assay: Antiproliferative activity against human HCT15 cells measured after 72 hrs by EZ-Cytox assay; format: functional, cell-based; conditions: HCT-15, 72 h
# T47D = assay: Antiproliferative activity against human T47D cells measured after 72 hrs by EZ-Cytox assay; format: functional, cell-based
# DU-145 = assay: Antiproliferative activity against human DU145 cells measured after 72 hrs by EZ-Cytox assay; format: functional, cell-based; conditions: DU-145, 72 h
# HeLa = assay: Antiproliferative activity against human HeLa cells measured after 72 hrs by EZ-Cytox assay; format: functional, cell-based
# [1] = target: T1, DNA topoisomerase 1 (Homo sapiens) (UniProt P11387); assay: Inhibition of recombinant human topoisomerase 1-mediated relaxation of supercoiled pBR322 DNA at 100 uM measured after 30 mins by ethidium bromide staining based agarose gel electrophoresis relative to control
# T1 sequence (whole entry): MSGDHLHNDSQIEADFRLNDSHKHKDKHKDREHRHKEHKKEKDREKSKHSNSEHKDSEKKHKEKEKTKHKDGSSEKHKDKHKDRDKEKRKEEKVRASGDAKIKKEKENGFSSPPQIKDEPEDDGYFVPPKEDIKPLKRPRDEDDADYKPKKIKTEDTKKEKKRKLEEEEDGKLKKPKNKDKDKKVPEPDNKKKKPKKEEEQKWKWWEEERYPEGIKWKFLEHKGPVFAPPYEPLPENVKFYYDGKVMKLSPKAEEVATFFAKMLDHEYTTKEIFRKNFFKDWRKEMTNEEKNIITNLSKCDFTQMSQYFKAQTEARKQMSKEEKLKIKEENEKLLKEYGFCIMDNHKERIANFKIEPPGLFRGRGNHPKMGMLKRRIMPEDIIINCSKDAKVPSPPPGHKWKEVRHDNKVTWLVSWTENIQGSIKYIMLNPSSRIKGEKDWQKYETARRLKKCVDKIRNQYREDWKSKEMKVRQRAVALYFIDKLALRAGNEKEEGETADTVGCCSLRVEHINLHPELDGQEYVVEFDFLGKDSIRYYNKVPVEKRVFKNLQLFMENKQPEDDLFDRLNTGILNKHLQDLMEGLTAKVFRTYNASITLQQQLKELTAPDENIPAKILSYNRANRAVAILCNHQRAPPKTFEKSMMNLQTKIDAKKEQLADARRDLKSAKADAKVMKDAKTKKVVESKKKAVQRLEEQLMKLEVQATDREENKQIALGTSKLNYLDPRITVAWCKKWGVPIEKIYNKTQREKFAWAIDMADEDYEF
# [2] = target: T1, DNA topoisomerase 1 (Homo sapiens); assay: Inhibition of recombinant human topoisomerase 1-mediated relaxation of supercoiled pBR322 DNA at 20 uM measured after 30 mins by ethidium bromide staining based agarose gel electrophoresis relative to control
# [3] = target: DNA topoisomerase 2-alpha (Homo sapiens) (UniProt P11388); assay: Inhibition of recombinant human topoisomerase 2alpha-mediated relaxation of supercoiled pBR322 DNA at 100 uM measured after 30 mins by ethidium bromide staining based agarose gel electrophoresis relative to control
# [4] = target: DNA topoisomerase 2-alpha (Homo sapiens) (UniProt P11388); assay: Inhibition of recombinant human topoisomerase 2alpha-mediated relaxation of supercoiled pBR322 DNA at 20 uM measured after 30 mins by ethidium bromide staining based agarose gel electrophoresis relative to control
# Chain of DNA topoisomerase 2-alpha (Homo sapiens) (P11388 whole entry): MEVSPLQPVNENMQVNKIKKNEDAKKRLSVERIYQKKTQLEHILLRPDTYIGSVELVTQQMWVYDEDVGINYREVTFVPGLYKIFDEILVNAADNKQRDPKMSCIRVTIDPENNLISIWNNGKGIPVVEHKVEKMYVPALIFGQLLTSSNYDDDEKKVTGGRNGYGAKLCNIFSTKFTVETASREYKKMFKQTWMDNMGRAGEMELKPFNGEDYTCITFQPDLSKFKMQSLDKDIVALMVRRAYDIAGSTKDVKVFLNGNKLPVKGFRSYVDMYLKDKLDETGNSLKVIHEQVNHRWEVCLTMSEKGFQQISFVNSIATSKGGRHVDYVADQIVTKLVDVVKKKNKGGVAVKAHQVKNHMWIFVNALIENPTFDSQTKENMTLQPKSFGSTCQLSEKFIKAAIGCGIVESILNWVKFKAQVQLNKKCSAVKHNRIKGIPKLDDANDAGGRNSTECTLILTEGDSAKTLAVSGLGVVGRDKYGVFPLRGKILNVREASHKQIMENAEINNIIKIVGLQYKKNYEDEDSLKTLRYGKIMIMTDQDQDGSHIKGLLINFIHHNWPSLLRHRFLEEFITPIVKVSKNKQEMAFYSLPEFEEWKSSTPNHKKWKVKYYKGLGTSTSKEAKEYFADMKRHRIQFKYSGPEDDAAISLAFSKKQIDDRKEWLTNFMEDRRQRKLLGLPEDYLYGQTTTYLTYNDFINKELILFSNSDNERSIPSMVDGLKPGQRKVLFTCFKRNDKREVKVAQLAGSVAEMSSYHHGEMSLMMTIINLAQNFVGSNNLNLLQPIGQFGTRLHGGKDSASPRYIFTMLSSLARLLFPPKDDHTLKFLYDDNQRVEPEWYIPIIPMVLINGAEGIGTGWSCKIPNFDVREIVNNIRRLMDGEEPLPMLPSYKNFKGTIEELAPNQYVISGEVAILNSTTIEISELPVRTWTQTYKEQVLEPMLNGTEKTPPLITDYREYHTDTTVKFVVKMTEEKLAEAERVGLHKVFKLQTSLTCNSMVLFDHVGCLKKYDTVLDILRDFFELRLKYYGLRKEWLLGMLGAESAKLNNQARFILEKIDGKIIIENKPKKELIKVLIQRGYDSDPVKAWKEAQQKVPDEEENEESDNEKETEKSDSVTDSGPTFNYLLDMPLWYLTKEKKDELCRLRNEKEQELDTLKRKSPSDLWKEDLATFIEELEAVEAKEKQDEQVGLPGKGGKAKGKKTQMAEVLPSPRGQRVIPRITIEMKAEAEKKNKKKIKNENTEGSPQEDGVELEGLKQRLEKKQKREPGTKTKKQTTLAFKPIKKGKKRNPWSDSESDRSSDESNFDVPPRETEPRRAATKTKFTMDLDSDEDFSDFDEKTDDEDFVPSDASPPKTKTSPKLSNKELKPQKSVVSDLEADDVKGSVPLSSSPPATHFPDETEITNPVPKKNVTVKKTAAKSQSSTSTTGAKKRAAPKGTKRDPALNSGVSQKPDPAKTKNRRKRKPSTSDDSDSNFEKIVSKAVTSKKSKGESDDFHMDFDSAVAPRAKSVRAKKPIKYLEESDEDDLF
Compound,IC50 (HCT-15),IC50 (T47D),IC50 (DU-145),IC50 (HeLa),inhibition [1],inhibition [2],inhibition [3],inhibition [4]
Oc1ccc(-c2cc(-c3cccc(C(F)(F)F)c3)nc3c2Cc2cc(O)ccc2-3)cc1,3470 nM,1430 nM,1900 nM,4520 nM,55.8%,0.3%,88.7%,4.6%
Oc1ccc2c(c1)Cc1c(-c3ccccc3Cl)cc(-c3ccccc3O)nc1-2,3130 nM,3820 nM,4430 nM,17900 nM,37%,7.4%,55.9%,3.5%
Oc1cccc(-c2cc(-c3ccccc3Cl)c3c(n2)-c2c(O)cccc2C3)c1,2430 nM,2510 nM,3210 nM,3640 nM,79.3%,0.2%,80.2%,3.6%
Oc1ccc(-c2cc(-c3ccc(C(F)(F)F)cc3)nc3c2Cc2c(O)cccc2-3)cc1,> 50000 nM,2010 nM,2110 nM,6540 nM,32.8%,0%,91.3%,11.1%
Oc1ccc(-c2cc(-c3ccc(C(F)(F)F)cc3)nc3c2Cc2cc(O)ccc2-3)cc1,2630 nM,1910 nM,1140 nM,4800 nM,87.4%,0%,83.2%,1.1%
Oc1ccc(-c2cc(-c3ccccc3Cl)c3c(n2)-c2cccc(O)c2C3)cc1,2420 nM,1730 nM,5840 nM,3720 nM,62.9%,0%,97%,13%
Oc1cccc(-c2cc(-c3ccccc3Cl)c3c(n2)-c2cc(O)ccc2C3)c1,2500 nM,2910 nM,2030 nM,5000 nM,55.9%,6.3%,93.2%,13.8%
Oc1ccc(-c2cc(-c3cccc(Cl)c3)c3c(n2)-c2ccc(O)cc2C3)cc1,5690 nM,1860 nM,2250 nM,5940 nM,8.8%,–,73.9%,3.3%
Oc1ccc2c(c1)Cc1c(-c3ccccc3O)cc(-c3ccccc3)nc1-2,2080 nM,2440 nM,1000 nM,27400 nM,8.2%,–,74.8%,0%
Oc1ccc2c(c1)-c1nc(-c3ccccc3)cc(-c3ccccc3)c1C2,3130 nM,190 nM,3490 nM,4380 nM,2.6%,–,79.9%,5.5%
Oc1ccccc1-c1cc(-c2cccc(C(F)(F)F)c2)nc2c1Cc1cccc(O)c1-2,2840 nM,980 nM,3380 nM,5730 nM,2.7%,–,95.8%,4.3%
Oc1cccc(-c2cc(-c3cccc(C(F)(F)F)c3)nc3c2Cc2cccc(O)c2-3)c1,14200 nM,3630 nM,2770 nM,> 50000 nM,0.2%,–,71.6%,0.7%
Oc1ccccc1-c1cc(-c2cccc(F)c2)nc2c1Cc1c(O)cccc1-2,2350 nM,1250 nM,3940 nM,3920 nM,0%,–,80.7%,4.8%
Oc1cccc(-c2cc(-c3ccc(C(F)(F)F)cc3)nc3c2Cc2ccc(O)cc2-3)c1,2950 nM,1800 nM,3180 nM,3630 nM,0%,–,100%,5.1%
Oc1ccc(-c2cc(-c3ccc(F)cc3)nc3c2Cc2cccc(O)c2-3)cc1,> 50000 nM,24500 nM,> 50000 nM,> 50000 nM,1.2%,–,75.3%,1.4%
Oc1cccc(-c2cc(-c3ccccc3C(F)(F)F)nc3c2Cc2ccc(O)cc2-3)c1,1670 nM,1220 nM,1830 nM,3710 nM,1.8%,–,79%,3.1%

Compound,IC50 (HCT-15),IC50 (T47D),IC50 (DU-145),IC50 (HeLa),inhibition [1],inhibition [2],inhibition [3],inhibition [4]
Oc1ccc2c(c1)-c1nc(-c3cccc(C(F)(F)F)c3)cc(-c3ccccc3O)c1C2,2950 nM,510 nM,1630 nM,5250 nM,0%,–,98.9%,2.8%
Oc1cccc(-c2cc(-c3cccc(Cl)c3)nc3c2Cc2cc(O)ccc2-3)c1,1620 nM,860 nM,3210 nM,5990 nM,0%,–,80.2%,37.8%
Oc1cccc(-c2cc(-c3ccccc3C(F)(F)F)nc3c2Cc2cc(O)ccc2-3)c1,2820 nM,1250 nM,2500 nM,4000 nM,11.7%,–,80.6%,2.4%
Oc1ccc2c(c1)-c1nc(-c3ccccc3C(F)(F)F)cc(-c3ccccc3O)c1C2,4040 nM,1410 nM,2860 nM,2960 nM,0.4%,–,86.1%,3.4%
Oc1cccc(-c2cc(-c3ccccc3C(F)(F)F)nc3c2Cc2cccc(O)c2-3)c1,2100 nM,1750 nM,1140 nM,4690 nM,15.9%,–,65.2%,3.3%
Oc1cccc(-c2cc(-c3ccc(C(F)(F)F)cc3)nc3c2Cc2cc(O)ccc2-3)c1,6820 nM,8900 nM,1590 nM,11400 nM,2.8%,–,100%,14.9%
Oc1ccc(-c2cc(-c3ccccc3)c3c(n2)-c2cc(O)ccc2C3)cc1,1430 nM,3430 nM,570 nM,2740 nM,20.9%,–,54.8%,9.3%
Oc1ccc(-c2cc(-c3ccc(Cl)cc3)c3c(n2)-c2cc(O)ccc2C3)cc1,12000 nM,2670 nM,1740 nM,10000 nM,14.2%,–,95.3%,10.8%
Oc1ccccc1-c1cc(-c2ccccc2C(F)(F)F)nc2c1Cc1c(O)cccc1-2,1740 nM,3020 nM,1380 nM,3950 nM,3.5%,–,83.7%,1.8%
Oc1ccccc1-c1cc(-c2ccccc2Cl)nc2c1Cc1c(O)cccc1-2,770 nM,920 nM,830 nM,680 nM,0%,–,82%,0%
Oc1cccc(-c2cc(-c3ccccc3Cl)nc3c2Cc2cc(O)ccc2-3)c1,1.33 nM,780 nM,810 nM,910 nM,5.6%,–,100%,32.3%
Oc1ccccc1-c1cc(-c2ccccc2)nc2c1Cc1c(O)cccc1-2,3470 nM,2330 nM,800 nM,6320 nM,0%,–,78.5%,0%
Oc1cccc(-c2cc(-c3ccc(Cl)cc3)nc3c2Cc2c(O)cccc2-3)c1,1820 nM,1960 nM,2030 nM,4320 nM,18.6%,–,76.8%,42%
Oc1cccc(-c2cc(-c3cccc(Cl)c3)nc3c2Cc2c(O)cccc2-3)c1,1130 nM,1520 nM,1490 nM,3310 nM,0.5%,–,100%,24.1%
Oc1ccc(-c2cc(-c3cccc(Cl)c3)nc3c2Cc2c(O)cccc2-3)cc1,1840 nM,620 nM,220 nM,3560 nM,1.2%,–,72.8%,36.9%

# Reference: ChEMBL document CHEMBL4373715, “Discovery and Biological Evaluations of Halogenated 2,4-Diphenyl Indeno[1,2-b]pyridinol Derivatives as Potent Topoisomerase IIα-Targeted Chemotherapeutic Agents for Breast Cancer” (J Med Chem, 2019)
